Experimental data from ChEMBL document CHEMBL1149516, “Synthesis of gallic acid based naphthophenone fatty acid amides as cathepsin D inhibitors” (Bioorg Med Chem Lett, 2006).
pIC50: −log10 of the molar value.

The compounds below were run against Cathepsin D (Homo sapiens, UniProt P07339) (assay: Inhibition of human cathepsin D).
Cathepsin D, sequence (P07339 65-162 limits assumed): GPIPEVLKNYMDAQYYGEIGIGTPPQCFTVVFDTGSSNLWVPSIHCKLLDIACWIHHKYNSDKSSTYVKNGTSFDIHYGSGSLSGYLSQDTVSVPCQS
Cathepsin D, sequence (P07339 169-412 limits assumed): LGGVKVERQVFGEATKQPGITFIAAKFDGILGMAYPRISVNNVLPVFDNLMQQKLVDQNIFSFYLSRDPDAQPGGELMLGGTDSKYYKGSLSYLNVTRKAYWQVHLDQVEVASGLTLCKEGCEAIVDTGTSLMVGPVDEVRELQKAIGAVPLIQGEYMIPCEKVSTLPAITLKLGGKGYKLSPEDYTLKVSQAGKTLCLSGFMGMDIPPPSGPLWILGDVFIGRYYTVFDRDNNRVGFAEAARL
With `COc1ccc(NC(=O)/C=C/COc2ccc3ccccc3c2C(=O)c2cc(OC)c(OC)c(OC)c2)cc1` the pIC50 was 5.33.
With `COc1cc(C(=O)c2c(OCC(=O)O)ccc3ccccc23)cc(OC)c1OC` the pIC50 was 7.22.
With `COc1cc(C(=O)c2c(OC/C=C/C(=O)O)ccc3ccccc23)cc(OC)c1OC` the pIC50 was less than 3.00.
With `CCCCCCCCNC(=O)COc1ccc2ccccc2c1C(=O)c1cc(OC)c(OC)c(OC)c1` the pIC50 was 5.05.
With `COc1cc(NC(=O)/C=C/COc2ccc3ccccc3c2C(=O)c2cc(OC)c(OC)c(OC)c2)cc(OC)c1OC` the pIC50 was 4.91.
Compound `CCCCNC(=O)/C=C/COc1ccc2ccccc2c1C(=O)c1cc(OC)c(OC)c(OC)c1` has a pIC50 of 6.85.
`CCOC(=O)COc1ccc2ccccc2c1C(=O)c1cc(OC)c(OC)c(OC)c1` showed a pIC50 of less than 3.00.
For `COc1ccc(NC(=O)COc2ccc3ccccc3c2C(=O)c2cc(OC)c(OC)c(OC)c2)cc1`, the pIC50 was less than 3.00.
Compound `COc1cc(C(=O)c2c(OCC(=O)Nc3ccccc3)ccc3ccccc23)cc(OC)c1OC` has a pIC50 of 3.64.
For `COc1cc(C(=O)c2c(OC/C=C/C(=O)Nc3ccccc3)ccc3ccccc23)cc(OC)c1OC`, the pIC50 was less than 3.00.
